This is an account of results in patent US6777396B2, “Feed for livestock” (Ajinomoto Co., Inc., priority 2000, dated 2004).

In assay [1] the test system is weaned barrows. In words: Example 3: feeding trial in weaned piglets, glutamine and/or glutamic acid added to starter feed. Type of assay: in vivo. The text has this:
120 weaned barrows were used and divided into 4 groups (30 animals for each group, 6 replications with 5 animals per replication), namely a control group (C), a glutamine alone administration group (GLN), a glutamic acid alone administration group (GLU) and a glutamine+glutamic acid mixture administration group (GLN+GLU). Piglets were weaned at 17 days of age in average. Also, the GLN group was provided with an experimental feed prepared by adding crystalline glutamine at 1.2% per feed weight to the starter feed, the GLU group with an experimental feed prepared by adding crystalline glutamic acid at 1.2% per feed weight to the starter feed, and the GLN+GLU group with an experimental feed prepared by adding glutamine and glutamic acid at 0.12% and 1.08%, respectively, per feed weight to the starter feed. After two weeks passed, a common feed was fed to all groups. Body weight and residual feed weight were measured to calculate feed intake, body weight gain and feed efficiency on the 14th and 21st days after the weaning.

For assay [2], the system named is Weaned piglets. In words: Example 1: feeding trial in weaned piglets, nucleic acid and/or glutamine added to starter feed. Type of assay: in vivo. An excerpt:
Weaned piglets, 72 barrows and 72 gilts were used and divided into 4 groups (36 animals for each group, 6 replications with 6 animals per replication), namely a control group (C), a nucleic acid alone administration group (N), a glutamine alone administration group (G) and a nucleic acid+glutamine mixture administration group (N+G). Piglets were weaned at 17 days of age in average. Also, the N group was provided with an experimental feed prepared by adding commercially available ribonucleic acid extracted from beer yeast (manufactured by Kirin Brewery CO., LTD.) at 0.8% per feed weight to the starter feed, the G group with an experimental feed prepared by adding crystalline glutamine at 1.2% per feed weight to the starter feed, and the N+G group with an experimental feed prepared by adding ribonucleic acid and glutamine at 0.8% and 1.2%, respectively, per feed weight to the starter feed. After two weeks passed, a common diet was fed to all groups. Body weight and residual feed weight were measured to calculate feed intake, body weight gain and feed efficiency on the 7th, 14th, 21st and 28th days after the weaning.

Assay [3] deals with weaned barrows. Nature of the assay: Example 2: feeding trial in weaned piglets, nucleic acid and/or glutamic acid added to starter feed. Type of assay: in vivo. An excerpt:
120 weaned barrows were used and divided into 4 groups (30 animals for each group, 6 replications with 5 animals per replication), namely a control group (C), a nucleic acid alone administration group (N), a glutamic acid alone administration group (G) and a nucleic acid+glutamic acid mixture administration group (N+G). Piglets were weaned at 17 days of age in average. Also, the N group was provided with an experimental feed prepared by adding commercially available ribonucleic acid extracted from beer yeast (manufactured by Kirin Brewery CO., LTD.) at 0.8% per feed weight to the starter feed, the G group with an experimental feed prepared by adding crystalline glutamic acid at 1.2% per feed weight to the starter feed, and the N+G group with an experimental feed prepared by adding ribonucleic acid and glutamic acid at 0.12% and 1.08%, respectively, per feed weight to the starter feed. Body weight and residual feed weight were measured to calculate feed intake, body weight gain and feed efficiency on the 7th and 14th days after the weaning.

For assay [4], the system named is Small Intestinal Villi. In words: Example 4: effect on recovery of small intestinal villi (villi length, crypt thickness by optical microscope). Type of assay: in vivo, piglets. As to conditions: 7th day after weaning. An excerpt:
24 weaned barrows were used and divided into 4 groups (6 animals for each group), namely a control group (C), a nucleic acid alone administration group (N), a glutamic acid alone administration group (G) and a nucleic acid+glutamic acid mixture administration group (N+G). Piglets were weaned at 17 days of age in average. Also, the N group was provided with an experimental feed prepared by adding commercially available ribonucleic acid extracted from beer yeast (manufactured by Kirin Brewery CO., LTD.) at 0.8% per feed weight to the starter feed, the G group with an experimental feed prepared by adding crystalline glutamic acid at 1.2% per feed weight to the starter feed, and the N+G group with an experimental feed prepared by adding ribonucleic acid and glutamic acid at 0.12% of and 1.08%, respectively, per feed weight to the starter feed. On the 7th day after weaning, all piglets were sacrificed to collect the small intestines. After the preparation of tissue sections from the collected small intestines by a general procedure, the length of villi and the thickness of crypt were measured using optical microscope.

Where [5] appears, read: 8 to 14 days after weaning, not statistically significant.

Marks after values point to notes of the source that are not given here.

In assay [1] (1 to 14 days (test feed)), `N[C@@H](CCC(=O)O)C(=O)O` [G, glutamic acid] showed an Average feed intake of 0.225 kg/day, a Body weight gain of 0.156 kg/day and a Feed efficiency of 1.453 Feed kg/Gain kg. Besides, in assay [1] (15 to 21 days (common feed)), the Average feed intake was determined as 0.459 kg/day, the Body weight gain turned out to be 0.342 kg/day and the Feed efficiency was determined as 1.333 Feed kg/Gain kg.

`NC(=O)CC[C@H](N)C(=O)O` [G, glutamine]: in assay [1] (1 to 14 days (test feed)), the Average feed intake is 0.211 kg/day, the Body weight gain was 0.147 kg/day and the Feed efficiency was 1.439 Feed kg/Gain kg. Besides, in assay [1] (15 to 21 days (common feed)), the Average feed intake is 0.446 kg/day, the Body weight gain is recorded as 0.351 kg/day and the Feed efficiency is listed as 1.280 Feed kg/Gain kg.

Turning to ribonucleic acid, the Average feed intake in assay [2] (0 to 7 days) was 0.159 kg/day; in assay [2] (0 to 28 days) it was 0.463 kg/day; in assay [2] (7 to 14 days), 0.377 kg/day; in assay [2] (14 to 21 days), 0.525 kg/day; in assay [2] (21 to 28 days) it was 0.797 kg/day; in assay [3] (0 to 7 days) it was 0.151^ab kg/day. This compound also gave an Average feed intake in assay [3] (8 to 14 days) of 0.291 kg/day. Further, the Body weight gain in assay [2] (0 to 7 days) is 0.116 kg/day; in assay [2] (0 to 28 days), 0.281 kg/day; in assay [2] (7 to 14 days), 0.301 kg/day; in assay [2] (14 to 21 days), 0.274 kg/day; in assay [2] (21 to 28 days), 0.432 kg/day; in assay [3] (0 to 7 days) it was 0.102^b kg/day. In assay [3] (8 to 14 days), this compound showed a Body weight gain of 0.234 kg/day. In addition, the Feed efficiency in assay [2] (0 to 7 days) is reported as 1.392 Feed kg/Gain kg; in assay [2] (0 to 28 days), 1.648^bc Feed kg/Gain kg; in assay [2] (7 to 14 days), 1.256 Feed kg/Gain kg; in assay [2] (14 to 21 days), 1.945 Feed kg/Gain kg; in assay [2] (21 to 28 days), 1.852 Feed kg/Gain kg; in assay [3] (0 to 7 days), 1.490 Feed kg/Gain kg. This compound yielded a Feed efficiency in assay [3] (8 to 14 days) of 1.252 Feed kg/Gain kg. The Average body weight in assay [2] (7 days after weaning, test feed days 0-14) is 6.17 kg; in assay [2] (14 days after weaning, test feed days 0-14) it was 8.28 kg; in assay [2] (21 days after weaning, common diet after day 14) it was 10.20 kg; in assay [2] (28 days after weaning, common diet after day 14), 13.23 kg; in assay [2] (at the time of weaning (baseline)), 5.36 kg. Besides, the “improvement in feed efficiency compared to the C group (in words)” value in assay [2] (whole test period (0 to 28 days after weaning)) is recorded as “slight improvement in feed efficiency”. For the same compound, the “body weight gain per day compared with C group (in words)” value in assay [3] (setting [5]) is reported as “further increased”. The “feed efficiency compared to the C group and G group (in words)” value in assay [3] (setting [5]) is on record as “tendency to be improved”. Moreover, in assay [3] (7 days just after weaning), the “body weight gain per day compared with the other groups (in words)” value was “not different from the C group”. Moreover, the Crypt thickness is 130^ab μm in assay [4] (Duodenum), 128^b μm in assay [4] (Ileum) and 136^b μm in assay [4] (Jejunum). In addition, the Villi length is 385^b μm in assay [4] (Duodenum), 344^ab μm in assay [4] (Ileum) and 406^b μm in assay [4] (Jejunum). Further, in assay [4] (duodenum, N and G vs C, N+G vs N and G), the “villi length compared between groups (in words)” value was “significantly longer”. Also, the “crypt thickness compared with the C and G group (in words)” value in assay [4] (jejunum and ileum) is given as “significantly thicker”.
